Reference: patent publication US20230063321A1, “Methods for Treating Inflammatory Bowel Diseases with alpha4beta7 Integrin Antagonists” (Protagonist Therapeutics, Inc., priority 2020, published 2023)
“And” between values parts separate entries of the source, which are not always exact repeats. Identical values can stand only once. Numbered stars: 1 amine (or outer) side, 2 acyl side, 3 side chain; on linkers, the order of the positions; unused ones are H or OH. Bridge positions count the residues as written; N and C are the ends. Square brackets hold non-standard residues; d marks the D form. Peptide text beside a SMILES is read from it. I, II: the chains in the order shown. ξ: configuration not given here. Phe(4-tBu) = CC(C)(C)c1ccc(C[C@H](N)C(=O)O)cc1; Diglycolyl = O=C(COCC(=O)[*:2])[*:1]; NMeR = CN[C@@H](CCCNC(=N)N)C(=O)O; β3hE = N[C@@H](CCC(=O)O)CC(=O)O; Thr(3ξ) = CC(O)[C@H](N)C(=O)O; X1 = O=C(c1ccccc1C[*:2])[*:1]; Pen = CC(C)(S)[C@H](N)C(=O)O

Assays:
[1] = tested on: primary CD4+ T-cells; test: Flow cytometry phenotype of proliferated CD4+ T-cells (Th subsets, surface β7); type: cell-based, human
Protocol: PBMCs were purified from healthy human donors and enrichment of CD4+ T cells was performed. […] Phenotype, distribution of T-helper (Th) subsets and % RO analyses were conducted by flow cytometry of freshly stained live samples.

[2] = target: T1, α4β7 integrin on memory CD4+ T cells (Homo sapiens, UniProt P13612+P26010); test: Study 1 blood α4β7 receptor occupancy and receptor expression; type: in vivo; conditions: for Average RE (%) / Average RO (%) / REmax (%) / ROmax (%) / Tmax for RE / Tmax for RO: Mean ± SD
T1 construct: the amount of α4β7 expression on the cell surface of circulating lymphocytes; endogenous in cells; host or cells: heparinized whole blood of healthy volunteers
T1 sequence (P13612 34-1032): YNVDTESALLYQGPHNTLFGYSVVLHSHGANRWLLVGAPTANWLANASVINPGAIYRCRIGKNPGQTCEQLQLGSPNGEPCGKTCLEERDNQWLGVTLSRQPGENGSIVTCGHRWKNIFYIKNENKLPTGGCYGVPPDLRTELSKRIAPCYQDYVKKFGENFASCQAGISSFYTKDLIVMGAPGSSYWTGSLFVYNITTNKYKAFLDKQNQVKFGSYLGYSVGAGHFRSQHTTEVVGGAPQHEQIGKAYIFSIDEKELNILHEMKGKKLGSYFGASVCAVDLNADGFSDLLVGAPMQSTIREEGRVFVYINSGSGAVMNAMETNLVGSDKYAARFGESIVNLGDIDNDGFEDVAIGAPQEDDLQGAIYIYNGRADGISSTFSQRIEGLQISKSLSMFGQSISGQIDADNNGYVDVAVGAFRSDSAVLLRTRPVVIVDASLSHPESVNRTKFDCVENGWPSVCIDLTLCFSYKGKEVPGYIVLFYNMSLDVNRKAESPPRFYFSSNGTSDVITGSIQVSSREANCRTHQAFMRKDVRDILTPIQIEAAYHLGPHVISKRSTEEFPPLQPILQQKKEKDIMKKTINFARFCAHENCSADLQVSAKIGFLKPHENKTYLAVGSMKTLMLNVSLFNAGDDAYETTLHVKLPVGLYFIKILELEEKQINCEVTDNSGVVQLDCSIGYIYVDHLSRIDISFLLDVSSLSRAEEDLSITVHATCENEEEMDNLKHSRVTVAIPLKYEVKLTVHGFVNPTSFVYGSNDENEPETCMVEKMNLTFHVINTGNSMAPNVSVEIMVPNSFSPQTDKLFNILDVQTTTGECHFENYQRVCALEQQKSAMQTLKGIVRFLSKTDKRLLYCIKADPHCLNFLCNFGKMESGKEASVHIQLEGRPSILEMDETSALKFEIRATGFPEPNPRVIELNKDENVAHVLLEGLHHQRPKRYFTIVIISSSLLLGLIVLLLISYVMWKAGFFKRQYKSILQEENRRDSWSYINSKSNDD
T1 sequence (P26010 20-798): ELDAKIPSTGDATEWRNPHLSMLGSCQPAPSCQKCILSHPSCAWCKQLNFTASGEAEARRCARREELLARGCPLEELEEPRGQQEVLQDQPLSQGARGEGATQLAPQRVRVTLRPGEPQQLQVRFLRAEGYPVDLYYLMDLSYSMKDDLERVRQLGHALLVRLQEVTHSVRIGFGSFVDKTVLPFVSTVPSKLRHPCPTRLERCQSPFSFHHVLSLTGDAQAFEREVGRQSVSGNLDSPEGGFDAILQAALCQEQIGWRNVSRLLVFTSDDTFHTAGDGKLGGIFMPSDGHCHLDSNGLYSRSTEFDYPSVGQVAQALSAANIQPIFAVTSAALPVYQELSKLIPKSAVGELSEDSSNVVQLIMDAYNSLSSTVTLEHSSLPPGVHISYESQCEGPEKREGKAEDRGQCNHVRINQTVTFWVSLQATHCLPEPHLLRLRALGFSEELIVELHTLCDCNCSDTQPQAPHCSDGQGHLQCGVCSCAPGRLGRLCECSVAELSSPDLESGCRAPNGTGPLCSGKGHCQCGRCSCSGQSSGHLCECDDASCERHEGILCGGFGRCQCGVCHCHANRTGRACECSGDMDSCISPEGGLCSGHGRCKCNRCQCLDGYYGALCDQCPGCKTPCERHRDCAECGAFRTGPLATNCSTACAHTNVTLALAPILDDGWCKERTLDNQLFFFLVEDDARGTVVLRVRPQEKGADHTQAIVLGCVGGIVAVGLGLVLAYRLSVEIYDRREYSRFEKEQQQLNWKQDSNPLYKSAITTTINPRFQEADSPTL
Protocol: After staining is completed, the samples are treated with a red blood cell lysis and fixation buffer, washed and acquired on a flow cytometer. To quantify receptor occupancy on α4β7 expressing memory CD4 T cells, the […] fluorescence intensity (MFI) of Alexa647-labelled peptide within the vedolizumab+ memory CD4+ T cells was used. Receptor occupancy was calculated according to the following formula: [Percent RO]=(1−([Unblocked]−[Blocked])/([Baseline Unblocked]−[Baseline Blocked]))×100.
Expression of α4β7 is defined by MFI of vedolizumab within the memory CD4+ T cells from the unblocked samples. Receptor expression (RE) was calculated as percent change of MFI from baseline for the vedolizumab stain.

[3] = Anti-CD3 + MAdCAM1 + 1 uM Compound A
[4] = 300 mg Fasted once daily, Day 1
[5] = 300 mg Fasted once daily, Day 14

CC(C)C[C@@H]1NC(=O)[C@H](C(C)O)NC(=O)[C@H](CC(=O)O)NC(=O)[C@H](CO)NC(=O)[C@H](CCCNC(=N)N)N(C)C(=O)c2ccccc2CSC(C)(C)[C@@H](C(=O)N[C@@H](Cc2ccc(C(C)(C)C)cc2)C(=O)N[C@@H](CCC(=O)O)CC(=O)N[C@H](CCCCNC(=O)COCC(=O)NCCCC[C@@H](NC(=O)C[C@H](CCC(=O)O)NC(=O)[C@H](Cc2ccc(C(C)(C)C)cc2)NC(=O)[C@H]2NC(=O)[C@H](CC(C)C)NC(=O)[C@H](C(C)O)NC(=O)[C@H](CC(=O)O)NC(=O)[C@H](CO)NC(=O)[C@H](CCCNC(=N)N)N(C)C(=O)c3ccccc3CSC2(C)C)C(=O)O)C(=O)O)NC1=O (stereo partly drawn) [Compound A, ((2-Benzyl)-(N-Me-R)-Ser-Asp-Thr-Leu-Pen-(Phe(4-tBlu))-(β-homo-Glu)-(D-Lys)-OH)2 (SEQ ID NO: 5) and linker-DIG diglycolic acid] (I: [NMeR]SD[Thr(3ξ)]L[Pen][Phe(4-tBu)][β3hE][dK]-OH / II: [NMeR]SD[Thr(3ξ)]L[Pen][Phe(4-tBu)][β3hE][dK]-OH; linker I:9-II:9 via Diglycolyl; linker I:N-I:6, II:N-II:6 via X1)
Th1-IFNγ, CD4+ T-cells [1, 3]: 15% | Th2-IL-4, CD4+ T-cells [1, 3]: 0.7% | Th17-IL-17A, CD4+ T-cells [1, 3]: 0.6% | surface expression of β7 in undivided CD4+ T-cells ([1]; tested in 5 donors): lowered | Average RE (%) ([2]; 100 mg Fed once daily, Day 1): −12.3 ± 6.6% | Average RO (%) ([2]; 100 mg Fed once daily, Day 1): 30.0 ± 7.7% | REmax (%) ([2]; 100 mg Fed once daily, Day 1): −17.4 ± 7.5% | ROmax (%) ([2]; 100 mg Fed once daily, Day 1): 46.8 ± 11.2% | Tmax for RE ([2]; 100 mg Fed once daily, Day 1): 14.0 ± 4.2 h | Tmax for RO ([2]; 100 mg Fed once daily, Day 1): 6.0 ± 3.7 h | Average RE (%) ([2]; 100 mg Fed once daily, Day 14): −23.8 ± 6.9% | Average RO (%) ([2]; 100 mg Fed once daily, Day 14): 40.5 ± 7.5% | REmax (%) ([2]; 100 mg Fed once daily, Day 14): −29.1 ± 7.2% | ROmax (%) ([2]; 100 mg Fed once daily, Day 14): 55.5 ± 8.82% | Tmax for RE ([2]; 100 mg Fed once daily, Day 14): 12.0 ± 0 h | Tmax for RO ([2]; 100 mg Fed once daily, Day 14): 5.0 ± 2.8 h | Average RE (%) [2, 4]: −25.1 ± 4.4% | Average RO (%) [2, 4]: 53.9 ± 6.5% | REmax (%) [2, 4]: −33.1 ± 5.2% | ROmax (%) [2, 4]: 77.8 ± 5.13% | Tmax for RE [2, 4]: 12.0 ± 0 h | Tmax for RO [2, 4]: 4.0 ± 0 h | ROmax (%) ([2]; 300 mg Fasted once daily, Day 1, listed as COMPOUND A): 77.8% | Average RE (%) [2, 5]: −37.7 ± 5.2% | Average RO (%) [2, 5]: 61.1 ± 6.0% | REmax (%) [2, 5]: −41.5 ± 5.9% | ROmax (%) [2, 5]: 79.7 ± 5.40% | Tmax for RE [2, 5]: 6.0 ± 3.7 h | Tmax for RO [2, 5]: 4.0 ± 0 h | ROmax (%) ([2]; 300 mg Fasted once daily, Day 14, listed as COMPOUND A): 79.7% | Average RE (%) ([2]; 300 mg Fed once daily, Day 1): −20.1 ± 3.4% | Average RO (%) ([2]; 300 mg Fed once daily, Day 1): 47.2 ± 7.5% | REmax (%) ([2]; 300 mg Fed once daily, Day 1): −28.4 ± 4.4% | ROmax (%) ([2]; 300 mg Fed once daily, Day 1): 70.4 ± 7.39% | Tmax for RE ([2]; 300 mg Fed once daily, Day 1): 12.0 ± 0 h | Tmax for RO ([2]; 300 mg Fed once daily, Day 1): 4.0 ± 0 h | Average RE (%) ([2]; 300 mg Fed once daily, Day 14): −31.7 ± 4.0% | Average RO (%) ([2]; 300 mg Fed once daily, Day 14): 57.8 ± 3.9% | REmax (%) ([2]; 300 mg Fed once daily, Day 14): −37.2 ± 4.7% | ROmax (%) ([2]; 300 mg Fed once daily, Day 14): 78.9 ± 5.89% | Tmax for RE ([2]; 300 mg Fed once daily, Day 14): 12.0 ± 0 h | Tmax for RO ([2]; 300 mg Fed once daily, Day 14): 4.0 ± 0 h | peak percent receptor occupancy ([2]; 300 mg within 30 minutes following a high fat meal): 61.4% | Average RE (%) ([2]; 450 mg BID, Day 1): −33.4 ± 4.4% | Average RO (%) ([2]; 450 mg BID, Day 1): 76.4 ± 8.4% | REmax (%) ([2]; 450 mg BID, Day 1): −42.6 ± 4.6% | ROmax (%) ([2]; 450 mg BID, Day 1): 86.5% and 86.5 ± 4.11% | Tmax for RE ([2]; 450 mg BID, Day 1): 19 ± 4.7 h | Tmax for RO ([2]; 450 mg BID, Day 1): 16 ± 6.2 h | Average RE (%) ([2]; 450 mg BID, Day 5, N = 7): −44.3 ± 4.2% | REmax (%) ([2]; 450 mg BID, Day 5, N = 7): −47.3 ± 4.3% | ROmax (%) ([2]; 450 mg BID, Day 5, N = 7): 91.9% and 91.9 ± 3.42% | Tmax for RE ([2]; 450 mg BID, Day 5, N = 7): 5.6 ± 5.1 h | Tmax for RO ([2]; 450 mg BID, Day 5, N = 7): 2.3 ± 1.6 h | Average RO (%) ([2]; 450 mg BID, Day 5, N = 7, 24-hour AUEC): 85.3% and 85.3 ± 7.3% | receptor occupancy at 450 mg ([2]; 450 mg twice daily, read-out: trough receptor occupancy): ~79.2% | Average RE (%) ([2]; 900 mg QD, Day 1): −38.3 ± 4.9% | Average RO (%) ([2]; 900 mg QD, Day 1): 80.7 ± 6.7%
